According to the METLIN SMRT retention time set (Domingo-Almenara et al. 2019):

Assay: gradient 5% acetonitrile 3 min, to 50% in 2 min, to 85% in 15 min, held 3 min, 100 µL/min
Conditions: column: Zorbax Extend-C18 2.1 x 50 mm; eluents: water / acetonitrile, 0.1% formic acid
How it was run: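 Using water and acetonitrile that each contained 0.1% formic acid, mixtures of ~100 pure standards were separated at 100 μL/min on a Zorbax Extend-C18 column (2.1 × 50 mm, 1.8 μm). The HPLC fed a quadrupole time-of-flight mass spectrometer working in positive and negative ionization mode, with dead and dwell volumes of 40 μL and 900 μL. Data were acquired over 3 months. Retention time was read from computationally picked adduct peaks after manual inspection of each.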

| SMILES | RP-LC retention time [s] |
| --- | --- |
| Cc1cnc(C2CC2)n1CCNC(=O)C1CC=CC1 | 562 |
| NC(=O)c1cc(-c2ccccc2)nc2ccccc12 | 743 |
| CCOC(=O)c1c(C)oc2ncnc(Nc3cc(C)ccc3OC)c12 | 1260 |
| Cc1ccc(NC(=O)C2CCN(S(=O)(=O)c3cc(C(=O)N4CCCC4)n(C)c3)CC2)nc1 | 647 |
| Cc1cc(C)c(-c2noc(C)n2)c(NC(=O)C2CCCCC2)n1 | 723 |
| Cn1cc(CC(=O)NCc2cc(-c3ccc4c(c3)OCO4)on2)c2ccccc21 | 813 |
| O=C(CSc1ncnc2ccccc12)N1CCCc2ccccc21 | 844 |
| Cc1oc(-c2ccc(Cl)cc2)nc1CN1CCCC(C(=O)NC2CCCCCC2)C1 (stereo not drawn) | 810 |
| O=C1CCCc2nc(N3CCN(CCO)CC3)nc(Nc3ccccc3)c21 | 644 |
| O=C(c1cc(-c2cccnc2)n[nH]1)N1CCN(C(=O)c2ccc(Br)o2)CC1 | 605 |
| O=C1NCCOCCCN(C(=O)Nc2ccccc2)[C@H]2CCCC[C@@H]12 | 672 |
| CC(=O)Nc1cccc(C2=NN(C(C)=O)C(c3ccc4nccnc4c3)C2)c1 (stereo not drawn) | 617 |
| Cc1ccc(NC(=O)Cn2nc3c(Oc4cccc(F)c4)nccn3c2=O)c(F)c1 | 878 |
| O=C(Nc1ccc(F)c(Cl)c1)C1CCc2nc(N3CCOCC3)ncc2C1 (stereo not drawn) | 855 |
| Cc1ccccc1CN1C(=O)N(c2cccc(F)c2)c2ncccc2S1(=O)=O | 1090 |
| CCN(CC)c1ncc2c(n1)CCC(C(=O)Nc1ccc(OC)cc1OC)C2 (stereo not drawn) | 726 |
| CCCC(NC(=O)Cc1ccccc1Cl)C(=O)Nc1nc2ccccc2[nH]1 (stereo not drawn) | 713 |
| CNC(=O)c1cc(-c2cccc(OC)c2)nc2ccccc12 | 800 |
| COc1ccc2ncc(C#N)c(Nc3cc(OC)c(OC)c(OC)c3)c2c1 | 626 |
| NC(=O)c1ncn2c(=O)n(CCCl)nnc12 | 645 |
| Cc1cc(F)ccc1NS(=O)(=O)c1cc2n(c1)CCN(CC(C)C)C2=O | 828 |
| COc1ccc(C(=O)N2CCC3(CC2)NC(=O)c2cccc(Cl)c2N3)cc1 | 738 |
| COc1ccc2nc(C(=O)NCc3ccccc3C)cn2n1 | 843 |

| SMILES | RP-LC retention time [s] |
| --- | --- |
| COc1ccc(Nc2c(-c3ccc(SC)cc3)nc3cnc(Br)cn23)cc1OC | 934 |
| CCC(CC)C(=O)N1CCc2c(c(C(=O)N3CCCC(C(=O)Nc4ccccc4C)C3)nn2C)C1 (stereo not drawn) | 817 |
| CC1CCN(CC[C@H]2CCCN2S(=O)(=O)c2cccc(O)c2)CC1 | 646 |
| CCS(=O)(=O)c1nc2ccc(NS(=O)(=O)c3ccccc3Cl)cc2s1 | 858 |
| CCOC(=O)c1[nH]c(C)c(CCC(=O)N2CCC(C(=O)NCCc3ccccc3OC)CC2)c1C | 812 |
| CCN1C(=O)c2cccnc2Sc2cc(CNC(=O)c3sccc3C)ccc21 | 779 |
| Cc1nn(-c2ccccc2)c(C)c1S(=O)(=O)N1CCC(C(=O)NCc2ccc3c(c2)OCO3)CC1 | 884 |
| CCN(c1cccc(C)c1)S(=O)(=O)c1cc(-c2[nH]ncc2C(=O)N(C)C)oc1C | 792 |
| Cc1occc1C(=O)Nc1nc(-c2ccc(CC(C)C)cc2)cs1 | 1350 |
| Cc1ccc(F)cc1NC(=O)Cn1cnc(C)c(C)c1=O | 660 |
| COCCN1C(=O)[C@H]2CN(Cc3ccc(OC)cc3OC)C[C@H]2C1=O | 594 |
| Cc1ccc(NC(=O)Cn2c(N)nc(C)cc2=O)cc1 | 577 |
| O=C(NCc1ccco1)c1ccc(NS(=O)(=O)c2cccc(C(F)(F)F)c2)cc1 | 818 |
| O=C(O)c1ccc(Nc2nc(-c3ccc(Br)cc3)cs2)cc1 | 989 |
| O=C(NCC1CC1)c1ccc(NC(=O)C2CCC2)cc1N1CCOCC1 | 709 |
| Cc1cccc(CNS(=O)(=O)c2cn(CC(C)C)c3ncccc23)c1 | 993 |
| Cn1cc(C2=CCN(C(=O)c3cccc(Cl)c3)CC2)c2cccnc21 | 901 |
| Cc1nc(-c2csc(S(=O)(=O)N3CCCC(C(=O)Nc4ccc(C)c(C)c4)C3)c2)no1 (stereo not drawn) | 939 |
| CCc1ccccc1NC(=O)Cn1c(C)nc2onc(C)c2c1=O | 845 |
| O=C(COc1ccc(-c2nnc3n2CCCC3)cc1)NCc1ccc2c(c1)OCO2 | 662 |
| Cc1c(Cl)cccc1Nc1c(-c2cccc(Cl)c2)nc2cnccn12 | 1140 |
| CCOc1ccccc1-c1nc(-c2cn(-c3ccc(F)cc3)nn2)no1 | 1090 |
| CCc1nncn1C1CCN(C(=O)c2cc(C)cc(C)c2)CC1 | 655 |

| SMILES | RP-LC retention time [s] |
| --- | --- |
| CCc1nccn1Cc1noc(-c2cccc(OC)c2)n1 | 557 |
| Cc1ccc(S(=O)(=O)NC2CCN(C(=O)c3ccnn3C)CC2)cc1 | 688 |
| CC1CCCN(c2ccc(-c3csc(S(=O)(=O)N4CCCCC4)c3)nn2)C1 (stereo not drawn) | 817 |
| Cc1oc(C2CCN(S(=O)(=O)c3ccc(C(F)(F)F)cc3)CC2)nc1C(=O)N(C)C | 900 |
| Cc1cc(C)cc(C(=O)NCc2ccc3c(c2)CCCN3C(=O)C2CCC2)c1 | 981 |
| Cc1cc(C)n(-c2nc(C)c(C(=O)Nc3cccc(C(F)(F)F)c3)s2)n1 | 1260 |
| CC(C)CCNC(=O)c1cn2cc(Cl)ccc2n1 | 825 |
| CCc1noc(NC(C)=O)c1-c1ccc(C)c(S(=O)(=O)NCc2ccc3c(c2)OCO3)c1 | 814 |
| Cc1ccccc1S(=O)(=O)N1CCC(Cc2nc3cccnc3n2CC(C)C)C1 (stereo not drawn) | 785 |
| O=C1OCC/C1=C\OCCCO/C=C1\CCOC1=O | 716 |
| Cc1ccc(S(=O)(=O)N2CCC(CCC(=O)N3CCN(C)CC3)CC2)cc1 | 627 |
| CC1CCN(C(=O)c2ccc3c(c2)CCCN3S(C)(=O)=O)CC1 | 836 |
| CCC(C(=O)N1CCN(c2ccccn2)CC1)n1c(C)c2cnn(-c3ccccc3)c(=O)c2c1C (stereo not drawn) | 632 |
| CSc1ccc(CNC(=O)CCC(=O)N2Cc3cccn3-c3ccccc32)cc1 | 961 |
| CC(C)(C)c1ccc(C(=O)Nc2ccc(S(N)(=O)=O)cc2)cc1 | 932 |
| CCOc1ccccc1C(=O)NCC1CCN(C(=O)c2ccccc2F)CC1 | 756 |
| Cc1noc([C@@H]2CC(F)(F)CN2C(=O)c2cnco2)n1 | 667 |
| COc1ccc(CN2C(=O)COC[C@H]2C(=O)NCc2ccc(Cl)cc2)c(OC)c1 | 805 |
| O=C(NCc1cccnc1)c1nnc(-c2ccc(S(=O)(=O)N3CCOCC3)cc2)o1 | 596 |
| O=C(NCc1ccccc1F)c1cn(-c2cc(N3CCOCC3)ncn2)cn1 | 758 |
| CCC(C(=O)NCCCN1CCOCC1)n1c2ccccc2c2cnn(C)c(=O)c21 (stereo not drawn) | 609 |
| CCN1CCN(c2nc3c(c(Nc4ccccc4)n2)C(=O)CCC3)CC1 | 1040 |
